Reference: patent US8187821B2, “Compositions and methods for the modulation of PGRMC1” (University of Utah Research Foundation, priority 2008, dated 2012)
pKd: −log10 of the molar value. Where two headings read alike, the source gives them in different places.

Tests used:
[1] = PGRMC1 binding assay control: non-specific [^3H] ligand association with membranes from untransformed bacteria (−PGRMC1); design: species or system E. coli; settings: for Q1 / Q2: two binding site model; for Q1: number of non-specific sites; for Q2: number of specific sites
Description: IPTG-induced cells were harvested by centrifugation (5,000 rpm; 5 min) and washed with ice-cold H2O. The pellet was resuspended in 5 mL buffer A (50 mM Tris-HCl pH 7.5, 150 mM NaCl, 0.1% NP40, and 10% glycerol) with 5-10 mg lysozyme, and incubated on ice for 30 min. The cells were then disrupted by three bursts of sonication (45 sec) at high intensity with a 45 sec cooling period between bursts. Soluble material was removed by centrifugation (15,000 rpm, 10 min) and the pellet resuspended in 5 mL buffer A. His10-PGRMC1 (His10 disclosed as SEQ ID NO: 14) was confirmed to be present in purified membranes by SDS-PAGE followed by Coomassie stain and western blot using anti-tetra-His (SEQ ID NO: 15) antibody (Qiagen). Total protein in the His10-PGRMC1 (His10 disclosed as SEQ ID NO: 14) transformed and untransformed purified membranes was determined by the Bradford method and membranes were normalized to 10 μg/μL total protein (diluted with buffer A). Purified membranes were then aliquoted and stored frozen until use.
The standard 10 μL binding reaction contained 10 μp purified membranes (total protein) and 10 μM [^3H] progesterone or [^3H] cholesterol (3,000-5,000 cpm) in buffer A: 20% ethanol. Stock solutions (100 μM) of [^3H] cholesterol and [^3H] progesterone containing ˜4×10^4 cpm/μL, were prepared in 95% ethanol. Reactions were prepared in clear 2.0 mL microcentrifuge tubes on ice. To start the reaction, the microfuge tube was briefly mixed (vortex) and placed at 37° C. Following a 10 to 30 min incubation, the tubes were centrifuged in a microfuge (˜13,000 rpm) for 2 min. The supernatant was carefully removed and the pellet was washed with an additional 10 μL water. After a second round of centrifugation (2 min; 13,000 rpm), the resulting supernatant was combined with the first and the pellet was resuspended in 20 μL H2O, Scintillation fluid (700 μL Wallac Optiflour) was added to each fraction and the fractions were mixed extensively. The fractions were then counted in a multi-well scintillation counter (Wallac Microbeta Triluxmax, Waltham, Mass.) for 30 seconds each. Binding are reported as μ/moles of ligand bound per mg of membrane protein. His10-PGRMC1 (His10 disclosed as SEQ ID NO: 14)-specific binding is reported as the difference in binding between transformed and untransformed bacteria. Experimental deviations from the standard assay conditions are noted in individual figure legends.
In order to better understand PGRMC1's biological function and to study ligand binding, an in vitro binding assay was developed. E. coli BL21 codon plus (RIPL) cells were transformed with a vector encoding PGRMC1 that was epitope tagged with 10 histidine (SEQ ID NO: 14) residues at the NH2-terminus. Untransformed BL21 cells were used as the control. A purification procedure was performed to remove soluble proteins and cell components from the transformed (+PGRMC1) and untransformed (−PGRMC1) bacterial membranes. The resulting purified membranes were confirmed for the presence and absence of His10-PGRMC1 (His10 disclosed as SEQ ID NO: 14) respectively by Coomassie stain and western blot using anti-His antibody. The membranes with [^3H] progesterone or [^3H] cholesterol were then incubated. The membranes were spun out, washed, and counted in a scintillation counter. His10-PGRMC1 (His10 disclosed as SEQ ID NO: 14) specific binding was then determined by subtracting total membrane-associated ligand (nmols/mg protein) in membranes prepared from untransformed bacteria (−PGRMC1) with membranes purified from bacteria expressing His10-PGRMC1 (His10 disclosed as SEQ ID NO: 14) (+PGRMC1).
To further explore the nature of ligand binding to His10-PGRMC1 (His10 disclosed as SEQ ID NO: 14), several in silico modeling experiments fitting the saturation data to different models of ligand binding were performed. The best statistical fit of the data was to a two binding site model. […]

His10-PGRMC1 [2] = target: T1, His10-PGRMC1 (Homo sapiens, UniProt O00264); assay: Coupled time-course proteolysis experiment (protease-sensitive vs protease-resistant specific binding); settings: trypsin after ligand incubation, FIG. 10
T1 construct: a product containing the full length coding region of PGMRC1 flanked by Nde1 and BamHI restriction sites; made in house; host or cells: E. coli BL21 (DE3) / BL21 codon plus (RIPL); purified bacterial membranes
Description: (§1) Since data from the competition assays indicate that progesterone and cholesterol bind to the same site within His10-PGRMC1 (His10 disclosed as SEQ ID NO: 14), the reason for the observation of more cholesterol binding in our assays was examined. There appear to be two plausible explanations: one possibility is that there are more cholesterol-specific binding sites on His10-PGRMC1 (His10 disclosed as SEQ ID NO: 14) that comprise the increase in observed binding; the other is that His10-PGRMC1 (His10 disclosed as SEQ ID NO: 14) is catalyzing the incorporation of cholesterol into the membrane. To distinguish between these possibilities, a coupled time-course proteolysis experiment was performed. In these studies, [^3H] progesterone and [^3H] cholesterol were incubated with membranes ±His10-PGRMC1 (His10 disclosed as SEQ ID NO: 14) for increasing time periods. At the end of the incubation period, the membranes were isolated, washed, and resuspended in a trypsin solution to remove all His10-PGRMC1 (His10 disclosed as SEQ ID NO: 14) protein. In this manner any ligand specifically bound to His10-PGRMC1 (His10 disclosed as SEQ ID NO: 14) would be protease-sensitive and be removed from the membrane fraction. Any ligand incorporated into the membrane or other protected site will be protease-resistant and remain in the membrane fraction. After proteolysis the reactions were separated by centrifugation into protease-resistant (membrane) and protease-sensitive (supernatant) fractions and ligand amount determined. […] Total specific binding of progesterone (FIG. 10A, diamonds) increasing over time and occurring at levels consistent with previous studies was observed. […] It is important to note that this ligand incorporation reaction is specific to bound cholesterol as it was observed that all bound progesterone was protein associated. Collectively our findings describe an important and previously uncharacterized function for PGRMC1 and sterol binding proteins in general, that of catalyzing the incorporation of cholesterol into membranes.

His10-PGRMC1 [3] = assay: as above; design: species or system human; settings: trypsin after ligand incubation, FIG. 10
Description: as §1

[4] = Solubility of ligand in the binding assay; type: physicochemical; settings: binding assay buffer; read-out: concentration above which only partially soluble in the assay
Description: Next, the question of whether binding of ligand to His10-PGRMC1 (His10 disclosed as SEQ ID NO: 14) is saturable was examined. […] Ligand binding time was held constant while increasing the ligand concentration by half logs in each experiment. The ligand concentration spanned four orders of magnitude from lowest to highest. […] Cholesterol was only partially soluble in our assay at concentrations greater than 3 mM so testing saturation at higher concentrations was unable to be performed.

[5] = first category of sites, present in both +PGRMC1 and −PGRMC1 membranes, read-out: Kd of non-specific binding
[6] = two binding site model fit of saturation data, −PGRMC1 membranes, non-specific site, read-out: Kd1

T1 sequence (O00264 whole entry): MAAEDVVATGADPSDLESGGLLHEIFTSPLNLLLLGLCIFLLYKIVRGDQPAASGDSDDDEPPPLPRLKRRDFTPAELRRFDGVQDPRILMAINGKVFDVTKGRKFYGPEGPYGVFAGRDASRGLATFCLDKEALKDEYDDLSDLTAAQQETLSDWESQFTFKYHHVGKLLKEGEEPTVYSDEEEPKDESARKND

Row | SMILES | pKd [1, 5] | pKd [1, 6] | Q1 ([1]; −PGRMC1 membranes) | Q2 ([1]; −PGRMC1 membranes) [Sites] | Membrane-Associated [^3H] Ligand ([1]; −PGRMC1 membranes, Protease + (trypsin before ligand binding)) [nmoles/mg protein] | Membrane-Associated [^3H] Ligand ([1]; −PGRMC1 membranes, Protease −) [nmoles/mg protein] | protease-sensitive (protein-associated) specific binding (His10-PGRMC1 [2]) | protease-resistant (membrane-associated) specific binding (His10-PGRMC1 [3]) | solubility [4] [µM]
1 | CC(=O)[C@H]1CC[C@H]2[C@@H]3CCC4=CC(=O)CC[C@]4(C)[C@H]3CC[C@]12C [Progesterone, progesterone] | ~3.00 | 2.77 | 8.4 × 10^9 Sites | 0 | 1.6 ± 0.2 | 2.4 ± 0.1 | essentially all | virtually no | 
2 | CC(C)CCC[C@@H](C)[C@H]1CC[C@H]2[C@@H]3CC=C4C[C@@H](O)CC[C@]4(C)[C@H]3CC[C@]12C [Cholesterol, cholesterol] | ~3.00 | 3.05 | 8.4 × 10^9 Sites | 0 |  | 3.7 ± 0.3 | decreased over time | increasingly protease-resistant | > 3000
